Results published in publication PMC4728427, “Mechanism of allosteric activation of TMEM16A/ANO1 channels by a commonly used chloride channel blocker” (British Journal of Pharmacology, 2016).

Key:
Mouse TMEM16A = target: T1, Mouse TMEM16A (Mus musculus, UniProt Q8BHY3); assay: Stationary noise analysis of whole-cell TMEM16A currents; assay type: cell-based; settings: +70 mV, 12.5 μM [Ca2+]i; for P o: control 0.78 ± 0.02
T1 construct: expressed in transfected cells; host or cells: HEK-293T
T1 sequence (Q8BHY3 1-960): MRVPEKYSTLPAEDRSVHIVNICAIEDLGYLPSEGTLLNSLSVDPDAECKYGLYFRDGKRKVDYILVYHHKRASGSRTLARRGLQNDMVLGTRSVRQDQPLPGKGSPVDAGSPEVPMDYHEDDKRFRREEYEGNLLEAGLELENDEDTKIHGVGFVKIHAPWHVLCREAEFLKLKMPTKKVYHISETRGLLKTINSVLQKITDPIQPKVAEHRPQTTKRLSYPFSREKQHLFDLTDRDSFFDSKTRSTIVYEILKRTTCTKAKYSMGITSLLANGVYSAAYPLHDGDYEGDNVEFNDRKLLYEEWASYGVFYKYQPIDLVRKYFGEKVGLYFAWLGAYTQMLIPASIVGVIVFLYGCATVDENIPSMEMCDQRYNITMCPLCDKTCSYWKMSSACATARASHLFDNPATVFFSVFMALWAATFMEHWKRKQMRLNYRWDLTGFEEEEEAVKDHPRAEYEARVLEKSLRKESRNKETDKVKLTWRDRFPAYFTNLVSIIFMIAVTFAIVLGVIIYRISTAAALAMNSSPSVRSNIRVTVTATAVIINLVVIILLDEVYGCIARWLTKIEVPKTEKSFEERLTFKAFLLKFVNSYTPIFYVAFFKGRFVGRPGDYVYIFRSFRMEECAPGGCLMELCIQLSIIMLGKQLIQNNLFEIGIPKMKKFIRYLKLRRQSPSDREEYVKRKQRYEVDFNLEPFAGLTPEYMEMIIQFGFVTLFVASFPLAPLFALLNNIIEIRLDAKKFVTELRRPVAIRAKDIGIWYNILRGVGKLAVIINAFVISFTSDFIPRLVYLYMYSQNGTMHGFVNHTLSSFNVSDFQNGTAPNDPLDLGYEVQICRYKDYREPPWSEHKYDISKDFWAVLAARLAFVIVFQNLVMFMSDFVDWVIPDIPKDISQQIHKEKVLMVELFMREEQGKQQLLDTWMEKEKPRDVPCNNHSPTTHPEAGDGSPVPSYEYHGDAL
Procedure: For non‐stationary noise analysis (Heinemann and Conti, 1992; Tammaro and Ashcroft, 2007), 80–200 identical pulses to a test potential of −70 mV (filtered at 10 kHz and sampled at 50 kHz) were applied, and the mean response, I, was calculated. The variance, σ ^2, was computed from the average squared difference of consecutive traces. Background variance and current at 0 mV were subtracted, and the variance–mean plot was fit by (4) σ^2=iI−I^2/N,
with the single channel current, i, and the number of channels, N, as free parameters.
TMEM16A channels are almost instantaneously activated by changes in V m in the presence of high [Ca^2+]i (12.5 μM) (e.g. Adomaviciene et al., 2013). The lack of slow time‐dependent changes in current amplitude under these conditions makes non‐stationary noise analysis unfeasible. Thus, for experiments carried out in high [Ca^2+]i, stationary noise analysis was performed instead. In the absence or presence of a fixed [A9C]ext, 10 tracts (each 600 ms in duration) of stationary currents measured at +70 mV were low‐pass filtered at 10 kHz and sampled at 50 kHz. For each tract of current, the variance and mean were calculated. The variance–mean plots obtained in the absence and presence of various [A9C]ext were fitted simultaneously with Equation (4).
Stationary noise analysis was used to determine if A9C block manifests as a change in i and/or P o of TMEM16A. Experiments were conducted in the presence of 12.5 μM [Ca^2+]i to enable examination of the effect of A9C block in the absence of A9C‐mediated activation. Mean current and variance were measured in tracts of stationary currents recorded in the absence or presence of different [A9C]ext.
With this assumption in mind, the variance–mean plots were fitted with Equation (4) (Figure 4C). The fits yielded a single value of i of 0.27 ± 0.04 pA (n = 5). P o values arising from the fits were 0.78 ± 0.02 for control (n = 5), 0.30 ± 0.08 at 100 μM [A9C]ext (n = 5) and 0.04 ± 0.01 at 1000 μM [A9C]ext (n = 5) (Figure 4D).

[1] = test system: native CaCCs in rabbit pulmonary artery smooth muscle cells; settings: cited from earlier work

In the case of `O=C(O)c1c2ccccc2cc2ccccc12` [A9C, Anthracene‐9‐carboxylic acid], the P o (Mouse TMEM16A; 100 μM [A9C]ext) is reported as 0.30 ± 0.08, the P o (Mouse TMEM16A; 1000 μM [A9C]ext) is reported as 0.04 ± 0.01 and the “single channel current i” value (Mouse TMEM16A; single value from simultaneous fit in absence and presence of [A9C]ext) is reported as 0.27 ± 0.04 pA. For the same compound, the “E rev of native CaCC currents” value ([1]; ref Piper and Greenwood (2003)) was “did not change” and the “native CaCC tail current increase” value ([1]; −80 mV, 500 μM A9C, ref Piper and Greenwood, 2003) was ~ 3 fold.
